Measurements taken from article PMC3463134 (Chembiochem : a European journal of chemical biology, 2012).

B1: KtzI (Kutzneria sp. 744) (protein)
chain: MTVAHAGESPTHDVVGVGFGPANLSLAVALEESPAALTSAFFERRASISWHQGMLLPAAKMQVSFLKDLATFRNPASRFSFVSFLHERGRLVRFANNHDFFPTRREFHDYLEWAESKLAHEVSYDSEVTAIRPGPGRPVDSVLVDVSTPEATRTVEARNIVISTGLVPRMPAGVQSDEFVWHSSRFLDHFRDRDPRSLRRVAVAGGGQSAAEIVRFLHDNRPDTVVHAIMPSYGYVVADNTPFANQIFDPAAVDDYFDGSKQAKDAFWRYHRNTNYSVVDDEVIRDLYRRGYDDEVAGAPRLNFVNLAHVVGAKRIADDTRVTVYSMAREESYDLDVDVLVCATGYDPMDPGDLLGELAEHCVQDAEGRWQVDRDYRMVTTPDLRCGIYLQGGTEHTHGLSSSLLSNLATRSGEIVSSIERRKS

Experiments:
KtzI = target: T1, KtzI (Kutzneria sp. 744, UniProt A8CF85); assay: NADPH oxidation assay; assay type: biochemical; settings: FAD, non-substrate effector (uncoupled NADPH oxidation)
T1 sequence (A8CF85 1-424): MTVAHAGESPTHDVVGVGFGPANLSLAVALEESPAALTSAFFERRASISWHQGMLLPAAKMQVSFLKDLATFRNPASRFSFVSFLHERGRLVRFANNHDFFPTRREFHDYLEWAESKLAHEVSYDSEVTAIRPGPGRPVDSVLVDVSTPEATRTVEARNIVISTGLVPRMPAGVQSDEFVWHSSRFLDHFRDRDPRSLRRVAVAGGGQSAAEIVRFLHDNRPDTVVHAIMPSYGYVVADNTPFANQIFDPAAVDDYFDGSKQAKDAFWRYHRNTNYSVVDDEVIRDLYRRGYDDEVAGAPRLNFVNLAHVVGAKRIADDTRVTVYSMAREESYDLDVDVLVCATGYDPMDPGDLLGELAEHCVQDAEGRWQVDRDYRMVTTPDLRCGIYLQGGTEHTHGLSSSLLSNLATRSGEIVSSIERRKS

purified protein = substrate: NCCC[C@H](N)C(=O)O; assay: purified protein; settings: FAD cofactor; NAD(P)H and O2 cosubstrates; apparent kcat

Molecule | NADPH oxidation assay (KtzI) | Km (purified protein) [µM] | kcat (purified protein) [s⁻¹]
NCCC[C@@H](N)C(=O)O [D-Orn] | L-Lys and D-Orn were observed to be non-substrate effectors of the enzyme | – | –
NCCCC[C@H](N)C(=O)O [L-Lys] | L-Lys and D-Orn were observed to be non-substrate effectors of the enzyme | – | –
B1 | – | 91 ± 8 | 0.116 ± 0.00217
